Results on four compounds are retold here after US5071749A, “Glycopetide antibiotic PA-45052-B” (Shionogi & Co., Ltd., priority 1987, dated 1991).

One data set has as its system broiler chicks. The data set is described as follows: Growth-stimulation test on chicks. Format: in vivo, broiler chicks (arbor acre). Conditions: 20 ppm in feed for 14 days; for FCR: feed efficiency (B/A) / FCR (%), index when control group is 100 / Increase of weight (%), index when control group is 100: broiler chicks; for Increase of weight A (M = g) ± SD (average increase of weight): broiler chicks 8 to 22 days old, 24 chicks; for FCR (%), index when control group is 100 / Increase of weight (%), index when control group is 100: control = 100. An excerpt: The growth-stimulating activities of PA-45052-A, PA-45052-B and PA-45052-E on broiler chicks (arbor acre, 8 days old) were investigated by using the known antibiotic thiopeptin as a referential agent. Chicks were fed with a feed mush (crude protein (CP) concentration 18%, each agent's concentration 20 ppm, not supplemented with other antibiotics) for 14 days in the battery brooders. The method of this experiment was as follows. After chicks were fed by floor pen with a feed (CP concentration 23%) from 0 to 8 days, they were divided into 5 groups (24 chicks a group, 12 male and 12 female) in such a way that the average weights of the groups are equal. To each group was administered PA-45052-A (20 ppm), PA-45052-B (20 ppm), PA-45052-E (20 ppm), thiopeptin (20 ppm) or only a feed (CP 18%) for 14 days. Each group was fed in cages (435×600×410 mm, each cage has 6-7 chicks) at 26°±2° C. for 14 days (up to 22 days old). Effectiveness was estimated from the increase of weight and the feed efficiency.

The test system of data set [1] is Staphylococcus aureus SR3131. Kind of data set: In vitro antibacterial activity, agar dilution method (MIC). Format: cell-based. The settings on record: Staphylococcus aureus SR3131, methicillin-resistant, 37° C., 18-20 hrs. Background: Agar dilution tests growth on a series of plates holding different concentrations.
Another data set relates to mouse. The data set is described as follows: LD50 on injection to mouse. Format: in vivo. An excerpt:
The growth-stimulating agent of this invention not only promotes growth of animals but also improves feed efficiency. Naturally, it is effective against infections by bacteria.

Data set [2] deals with Cl. perfringens FC 2208/75. Format: cell-based, Clostridium perfringens. The settings on record: strain FC 2208/75, origin cow; GAM agar, anaerobic, 37° C., 24 hours.
For the next data set, the system named is Cl. perfringens 02441. It is filed as cell-based, Clostridium perfringens. Conditions: strain 02441, origin chicken; GAM agar, anaerobic, 37° C., 24 hours.
For another data set, the system named is Cl. perfringens 9C-02. It is filed as cell-based, Clostridium perfringens. The settings on record: strain 9C-02, origin chicken; GAM agar, anaerobic, 37° C., 24 hours.
Data set [3] has as its system Staphylococcus aureus PDA 209P JC-1. Kind of data set: In vitro antibacterial activity, agar dilution method (MIC). The settings on record: 37° C., 18-20 hrs.
Data set [4] relates to Cl. perfringens NCTC-8798. Format: cell-based, Clostridium perfringens. The settings on record: strain NCTC-8798, origin cow; GAM agar, anaerobic, 37° C., 24 hours.
Data set [5] relates to Staphylococcus aureus SR14. Kind of data set: In vitro antibacterial activity, agar dilution method (MIC). Conditions: Staphylococcus aureus SR14, penicillin-resistant, 37° C., 18-20 hrs. It is filed as cell-based.
Another data set concerns Cl. perfringens 3C-01. Format: cell-based, Clostridium perfringens. The settings on record: strain 3C-01, origin chicken; GAM agar, anaerobic, 37° C., 24 hours.
The next data set relates to Cl. perfringens CW-1970. Format: cell-based, Clostridium perfringens. The settings on record: strain CW-1970, origin cow; GAM agar, anaerobic, 37° C., 24 hours.
The subject of data set [6] is Cl. perfringens NCTC-10239. It is filed as cell-based, Clostridium perfringens. Conditions: strain NCTC-10239, origin cow; GAM agar, anaerobic, 37° C., 24 hours.
Data set [7] deals with Staphylococcus aureus SR1626. The data set is described as follows: In vitro antibacterial activity, agar dilution method (MIC). It is filed as cell-based. Conditions: Staphylococcus aureus SR1626, methicillin-resistant, 37° C., 18-20 hrs.
For data set [8], the system named is Streptococcus faecalis SR 1004. Described as above. Conditions: horse serum 0.5%, 37° C., 18-20 hrs.
Data set [9] relates to Staphylococcus aureus SMITH. The data set is described as above. The settings on record: 37° C., 18-20 hrs.
Data set [10] deals with Cl. perfringens NCTC-8239. It is filed as cell-based, Clostridium perfringens. Conditions: strain NCTC-8239, origin cow; GAM agar, anaerobic, 37° C., 24 hours.
The test system of data set [11] is Streptococcus pyogenes C-203. Kind of data set: In vitro antibacterial activity, agar dilution method (MIC). The settings on record: horse serum 0.5%, 37° C., 18-20 hrs.
The subject of data set [12] is Staphylococcus aureus SR3626. Described as above. Conditions: Staphylococcus aureus SR3626, methicillin-resistant, 37° C., 18-20 hrs. Format: cell-based.
Another data set has as its system Cl. perfringens SP07. Format: cell-based, Clostridium perfringens. The settings on record: strain SP07, origin chicken; GAM agar, anaerobic, 37° C., 24 hours.
The test system of data set [13] is Streptococcus agalactiae SR 1247. The data set is described as follows: In vitro antibacterial activity, agar dilution method (MIC). Conditions: horse serum 0.5%, 37° C., 18-20 hrs.
In data set [14] the test system is Streptococcus pyogenes C-203. Kind of data set: Antibacterial activity in vivo, mouse intraperitoneal infection (ED50). Conditions: Slc-ICR female mice, i.p. inoculation of Streptococcus pyogenes C-203; s.c. dosing 1 and 5 hours later; survival on day 7. The protocol: (§1) Test method: The test organism is intraperitoneally inoculated to Slc-ICR female mice (8 mice per group), and PA-45052-A, -B or -C (two-fold dilution) is subcutaneously administered twice one hour later and 5 hours later.
(§2) Results: The 50% effective dose (ED50) is calculated from the survival rate on day 7.

Data set [15] concerns Staphylococcus aureus SR 3637. The description is as above. The settings on record: Slc-ICR female mice, i.p. inoculation of S. aureus SR 3637 (methicillin-resistant); s.c. dosing 1 and 5 hours later; survival on day 7. The protocol:
as §1, §2

The test system of data set [16] is Streptococcus pneumoniae Type I. Described as above. The settings on record: Slc-ICR female mice, i.p. inoculation of Streptococcus pneumoniae Type I; s.c. dosing 1 and 5 hours later; survival on day 7. The protocol:
as §1, §2

In data set [17] the test system is Staphylococcus aureus SR 2030. Described as above. Conditions: Slc-ICR female mice, i.p. inoculation of S. aureus SR 2030 (methicillin-resistant); s.c. dosing 1 and 5 hours later; survival on day 7. The procedure: as §1, §2
Another data set deals with Cl. perfringens S-79. It is filed as cell-based, Clostridium perfringens. Conditions: strain S-79, origin cow; GAM agar, anaerobic, 37° C., 24 hours.
In data set [18] the test system is Streptococcus epidermidis ATCC 14490. The data set is described as follows: In vitro antibacterial activity, agar dilution method (MIC). The settings on record: 37° C., 18-20 hrs.
For data set [19], the system named is Staphylococcus aureus ATCC 25923. Described as above. Conditions: 37° C., 18-20 hrs.
In the next data set the test system is Cl. perfringens 6B-10. It is filed as cell-based, Clostridium perfringens. Conditions: strain 6B-10, origin cow; GAM agar, anaerobic, 37° C., 24 hours.
Data set [20] relates to Streptococcus pneumoniae Type I. The data set is described as follows: In vitro antibacterial activity, agar dilution method (MIC). Conditions: horse serum 0.5%, 37° C., 18-20 hrs.

In brackets after ≈: the same amount, converted by molar mass. Where only a bound is given, the exact number is not on record here.

Usually MIC stands for the lowest concentration found to suppress growth. Read a high MIC as weaker potency. In general, LD50 refers to the dose at which mortality reaches 50%. Higher therefore signals a less toxic substance.

In the case of `CNC(CC(C)C)C(=O)NC1C(=O)NC(CC(N)=O)C(=O)NC2C(=O)NC3C(=O)NC(C(=O)NC(C(=O)O)c4cc(O)cc(O)c4-c4cc3ccc4O)C(OC3CC(C)(N)C(O)C(C)O3)c3ccc(c(Cl)c3)Oc3cc2cc(c3OC2OC(CO)C(O)C(O)C2OC2CC(C)(N)C(O)C(C)O2)Oc2ccc(cc2Cl)C1O` (stereo not drawn) [PA-45052-A], in the data set on broiler chicks, the “FCR: feed efficiency (B/A)” value is recorded as 1.63. Besides, the “Increase of weight A (M = g) ± SD (average increase of weight)” value in the data set with broiler chicks is 440.9 ± 60.4 g. For the same compound, the “FCR (%), index when control group is 100” value in the data set on broiler chicks is listed as 95.3%. In addition, the “Increase of weight (%), index when control group is 100” value in the data set with broiler chicks is given as 105.9%. The MIC is 0.39 µg/mL (≈ 0.245 µM) in data set [1]; 0.39 µg/mL (≈ 0.245 µM) in [2]; 0.39 µg/mL (≈ 0.245 µM) in the data set on Cl. perfringens 02441; 0.39 µg/mL (≈ 0.245 µM) in the data set on Cl. perfringens 9C-02; 0.2 µg/mL (≈ 0.126 µM) in data set [3]; 0.39 µg/mL (≈ 0.245 µM) in data set [4]. In addition, the MIC came out at 0.39 µg/mL (≈ 0.245 µM) in data set [5]; 0.78 µg/mL (≈ 0.49 µM) in the data set with Cl. perfringens 3C-01; 0.39 µg/mL (≈ 0.245 µM) against Cl. perfringens CW-1970; 0.2 µg/mL (≈ 0.126 µM) in data set [6]; 0.39 µg/mL (≈ 0.245 µM) in data set [7]; 0.78 µg/mL (≈ 0.49 µM) in [8]. In addition, the MIC worked out at 0.39 µg/mL (≈ 0.245 µM) in data set [9]; 0.2 µg/mL (≈ 0.126 µM) in data set [10]; 0.2 µg/mL (≈ 0.126 µM) in data set [11]; 0.39 µg/mL (≈ 0.245 µM) in data set [12]; 0.2 µg/mL (≈ 0.126 µM) in the data set on Cl. perfringens SP07; 0.2 µg/mL (≈ 0.126 µM) in [13]. Besides, the MIC amounted to 0.39 µg/mL (≈ 0.245 µM) against Cl. perfringens S-79; 0.78 µg/mL (≈ 0.49 µM) in data set [18]; 0.39 µg/mL (≈ 0.245 µM) in data set [19]; 0.39 µg/mL (≈ 0.245 µM) with Cl. perfringens 6B-10; 0.1 µg/mL (≈ 0.0628 µM) in [20]. Also, in the data set on mouse, the LD50 is listed as > 1000 mg/kg. In addition, the “ED50 (50% effective dose)” value in data set [14] stood at 0.14 mg/kg/dose; in [15] it was 1.91 mg/kg/dose; in [16] it was 0.19 mg/kg/dose; in [17], 0.99 mg/kg/dose.
Turning to `CC(C)CC(C(=O)NC1C(=O)NC(CC(N)=O)C(=O)NC2C(=O)NC3C(=O)NC(C(=O)NC(C(=O)O)c4cc(O)cc(O)c4-c4cc3ccc4O)C(OC3CC(C)(N)C(O)C(C)O3)c3ccc(c(Cl)c3)Oc3cc2cc(c3OC2OC(CO)C(O)C(O)C2OC2CC(C)(N)C(O)C(C)O2)Oc2ccc(cc2Cl)C1O)N(C)C` (stereo not drawn) [PA-45052-D], the MIC is 0.39 µg/mL (≈ 0.243 µM) in data set [1]; 0.2 µg/mL (≈ 0.124 µM) in data set [3]; 0.39 µg/mL (≈ 0.243 µM) in data set [5]; 0.39 µg/mL (≈ 0.243 µM) in data set [7]; 0.78 µg/mL (≈ 0.486 µM) in [8]; 0.39 µg/mL (≈ 0.243 µM) in data set [9]. Further, the MIC in data set [11] turned out to be 0.2 µg/mL (≈ 0.124 µM); in [12], 0.78 µg/mL (≈ 0.486 µM); in [13] it was 0.2 µg/mL (≈ 0.124 µM); in [18], 0.78 µg/mL (≈ 0.486 µM); in data set [19], 0.78 µg/mL (≈ 0.486 µM); in data set [20], 0.2 µg/mL (≈ 0.124 µM).
Regarding `CC(C)CC(C(=O)NC1C(=O)NC(CC(N)=O)C(=O)NC2C(=O)NC3C(=O)NC(C(=O)NC(C(=O)O)c4cc(O)cc(O)c4-c4cc3ccc4O)C(OC3CC(C)(N)C(O)C(C)O3)c3ccc(c(Cl)c3)Oc3cc2cc(c3OC2OC(CO)C(O)C(O)C2O)Oc2ccc(cc2Cl)C1O)N(C)C` (stereo not drawn) [PA-45052-E], the MIC in [1] stood at 0.78 µg/mL (≈ 0.533 µM); in data set [3] it was 0.39 µg/mL (≈ 0.267 µM); in data set [5] it was 0.78 µg/mL (≈ 0.533 µM); in data set [7] it was 0.78 µg/mL (≈ 0.533 µM); in data set [8] it was 1.56 µg/mL (≈ 1.07 µM); in data set [9], 0.78 µg/mL (≈ 0.533 µM). The MIC in [11] is 0.39 µg/mL (≈ 0.267 µM); in [12], 0.78 µg/mL (≈ 0.533 µM); in data set [13] it was 0.39 µg/mL (≈ 0.267 µM); in [18] it was 3.13 µg/mL (≈ 2.14 µM); in data set [19], 0.78 µg/mL (≈ 0.533 µM); in [20] it was 0.39 µg/mL (≈ 0.267 µM).
For thiopeptin [reference compound], in the data set with broiler chicks, the “FCR: feed efficiency (B/A)” value was determined as 1.62; the “Increase of weight A (M = g) ± SD (average increase of weight)” value was determined as 431.5 ± 53.4 g; the “FCR (%), index when control group is 100” value is listed as 94.7%; the “Increase of weight (%), index when control group is 100” value is recorded as 103.7%.
